pIC50: −log10 of the molar value. Structures can show the parent of a compound that is named as a salt. Where two headings read alike, the source gives them in different places.
Experiments:
[1] = system: NCI-H358 cells (express KRas G12C), Phospho-ERK; test: Cellular inhibition of KRas G12C: Phospho-ERK in NCI-H358 cells; assay type: cell-based; conditions: pERK(Thr202/Tyr204) normalized with GAPDH, NCI-H358 cells, 3 hours, read-out: IC50
Method in brief: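 IC50 derived by 4-parameter fit of GAPDH-normalized pERK(Thr202/Tyr204) signal, as percent of DMSO control. Signal came from in-cell immunodetection with infrared secondaries after 3 h compound exposure of KRas G12C NCI-H358 cells at 0.5% DMSO.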

KRas G12C = KRas G12C (Homo sapiens, UniProt P01116, C118S/C51S/C80L/G12C); test: KRas G12C Modification Assay (LCMS detection of covalent adduct); assay type: binding; conditions: normalized percent of control; tested at 5 μM concentration for 3 hours
Method in brief: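 Cys-light KRas G12C mutant protein incubated with compound in K-Ras assay buffer, reactions quenched at set time points with 25 mM acetic acid and analysed by intact-protein LC/MS on a C-3 column. Deconvoluted mass heights expressed as percent of control (POC) relative to compound-free protein.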

POC (KRas G12C) | SMILES | pIC50 ([1]; Homo sapiens, NCI-H358, 3 h) | pIC50 [1] | pIC50 ([1]; Homo sapiens)
C (“C”>50% POC) | C=CC(=O)N1CCN(c2nc(OC[C@@H]3CCCN3CC3CC3)nc3c2CCN(c2cccc4ccccc24)C3)CC1CC#N (stereo partly drawn) [Example 395, 2-(1-acryloyl-4-(2-(((S)-1-(cyclopropylmethyl)pyrrolidin-2-yl)methoxy)-7-(naphthalen-1-yl)-5,6,7,8-tetrahydropyrido[3,4-d]pyrimidin-4-yl)piperazin-2-yl)acetonitrile] | 6.00 to 10.00 | – | –
C (“C”>50% POC) | C=CC(=O)N1CCN(c2nc(OCCN(C)C)nc3c2CCN(c2cc(O)cc4ccccc24)C3)C[C@H]1C [Example 15, (R)-1-(4-(2-(2-(dimethylamino)ethoxy)-7-(3-hydroxynaphthalen-1-yl)-5,6,7,8-tetrahydropyrido[3,4-d]pyrimidin-4-yl)-2-methylpiperazin-1-yl)prop-2-en-1-one] | < 6.00 | – | –
C (“C”>50% POC) | C=CC(=O)N1CCN(c2nc(OC[C@@H]3CCCN3C)nc3c2CCN(c2cccc4ccn(C)c24)C3)C[C@@H]1CC#N [Example 434, 2-((S)-1-acryloyl-4-(7-(1-methyl-1H-indol-7-yl)-2-(((S)-1-methylpyrrolidin-2-yl)methoxy)-5,6,7,8-tetrahydropyrido[3,4-d]pyrimidin-4-yl)piperazin-2-yl)acetonitrile] | 6.00 to 10.00 | – | –
A (“A”≤25% POC) | C=CC(=O)N1CCN(c2nc(OCC(O)CN3CCOCC3)nc3c2CCN(c2cc(O)cc4ccccc24)C3)CC1 (centres unmarked) [Example 123, 1-(4-(2-(2-hydroxy-3-morpholinopropoxy)-7-(3-hydroxynaphthalen-1-yl)-5,6,7,8-tetrahydropyrido[3,4-d]pyrimidin-4-yl)piperazin-1-yl)prop-2-en-1-one] | < 6.00 | – | –
C (“C”>50% POC) | C=CC(=O)N1CCN(c2nc(OCCc3ccccn3)nc3c2CCN(c2cc(O)cc4ccccc24)C3)CC1 [Example 126, 1-(4-(7-(3-hydroxynaphthalen-1-yl)-2-(2-(pyridin-2-yl)ethoxy)-5,6,7,8-tetrahydropyrido[3,4-d]pyrimidin-4-yl)piperazin 1-yl)prop-2-en-1-one trifluoroacetate] | < 6.00 | – | –
C (“C”>50% POC) | C=CC(=O)N1CCN(c2nc(OC[C@@H]3CCCN3C)nc3c2CCN(c2ccccc2C(F)(F)F)C3)C[C@@H]1CC#N [Example 237, 2-((S)-1-acryloyl-4-(2-(((S)-1-methylpyrrolidin-2-yl)methoxy)-7-(2-(trifluoromethyl)phenyl)-5,6,7,8-tetrahydropyrido[3,4-d]pyrimidin-4-yl)piperazin-2-yl)acetonitrile 2,2,2-trifluoroacetate] | 6.00 to 10.00 | – | –
C (“C”>50% POC) | C=CC(=O)N1CCN(c2nc(OC[C@@H]3CCCN3C)nc3c2CCN(c2ccccc2C#N)C3)C[C@@H]1CC#N [Example 325, 2-[4-[(3S)-3-(cyanomethyl)-4-prop-2-enoyl-piperazin-1-yl]-2-[[(2S)-1-methylpyrrolidin-2-yl]methoxy]-6,8-dihydro-5H-pyrido[3,4-d]pyrimidin-7-yl]benzonitrile] | < 6.00 | – | –
C (“C”>50% POC) | C=CC(=O)N1CCN(c2nc(OC[C@@H]3CCCN3C)nc3c2CCN(c2c(C(F)(F)F)ccc4[nH]ncc24)C3)CC1 [Example 156, (S)-1-(4-(2-((1-methylpyrrolidin-2-yl)methoxy)-7-(5-(trifluoromethyl)-1H-indazol-4-yl)-5,6,7,8-tetrahydropyrido[3,4-d]pyrimidin-4-yl)piperazin-1-yl)prop-2-en-1-one] | 6.00 to 10.00 | – | –
C (“C”>50% POC) | C=CC(=O)N1CCN(c2nc(OC[C@H]3CCCC(=O)N3)nc3c2CCN(c2cc(O)cc4ccccc24)C3)CC1 (single isomer, unassigned) [Example 62] | < 6.00 | – | –
C (“C”>50% POC) | C=CC(=O)N1CCN(c2nc(OC[C@@H]3C[C@@H](OC)CN3C)nc3c2CCN(c2cccc4ccccc24)C3)CC1CC#N (stereo partly drawn) [Example 381, 2-(1-acryloyl-4-(2-(((2S,4R)-4-methoxy-1-methylpyrrolidin-2-yl)methoxy)-7-(naphthalen-1-yl)-5,6,7,8-tetrahydropyrido[3,4-d]pyrimidin-4-yl)piperazin-2-yl)acetonitrile] | – | 6.00 to 10.00 | –
C (“C”>50% POC) | C=CC(=O)N1CCN(c2nc(OCCN(CC)CC)nc3c2CCN(c2c(C)ccc4[nH]ncc24)C3)CC1 [Example 163, 1-(4-(2-(2-(diethylamino)ethoxy)-7-(5-methyl-1H-indazol-4-yl)-5,6,7,8-tetrahydropyrido[3,4-d]pyrimidin-4-yl)piperazin-1-yl)prop-2-en-1-one] | – | – | < 6.00
C (“C”>50% POC) | C=CC(=O)N1CCN(c2nc(OC[C@@H]3CCCN3C)nc3c2CCN(c2nccc4ccccc24)C3)CC1CC#N (stereo partly drawn) [Example 289, 2-[4-[7-(1-isoquinolyl)-2-[[(2S)-1-methylpyrrolidin-2-yl]methoxy]-6,8-dihydro-5H-pyrido[3,4-d]pyrimidin-4-yl]-1-prop-2-enoyl-piperazin-2-yl]acetonitrile] | – | < 6.00 | –
C (“C”>50% POC) | C=CC(=O)N1CCN(c2nc(O[C@H](C)CN(C)C)nc3c2CCN(c2cc(O)ccc2OC(F)(F)F)C3)CC1 [Example 78, (R)-1-(4-(2-((1-(dimethylamino)propan-2-yl)oxy)-7-(5-hydroxy-2-(trifluoromethoxy)phenyl)-5,6,7,8-tetrahydropyrido[3,4-d]pyrimidin-4-yl)piperazin-1-yl)prop-2-en-1-one] | – | – | < 6.00
C (“C”>50% POC) | CN1CCC[C@H]1COc1nc2c(c(N3CCN(C(=O)/C=C/CN4CCCC4)[C@@H](CC#N)C3)n1)CCN(c1cccc(Cl)c1C(F)(F)F)C2 [Example 347, 2-[(2S)-4-[7-[3-chloro-2-(trifluoromethyl)phenyl]-2-[[(2S)-1-methylpyrrolidin-2-yl]methoxy]-6,8-dihydro-5H-pyrido[3,4-d]pyrimidin-4-yl]-1-[(E)-4-pyrrolidin-1-ylbut-2-enoyl]piperazin-2-yl]acetonitrile] | 6.00 to 10.00 | – | –
C (“C”>50% POC) | C=CC(=O)N1CCN(c2nc(OC[C@@H]3CCCN3C)nc3c2CCN(c2cncc4ccccc24)C3)CC1CC#N (stereo partly drawn) [Example 291, 2-[4-[7-(4-isoquinolyl)-2-[[(2S)-1-methylpyrrolidin-2-yl]methoxy]-6,8-dihydro-5H-pyrido[3,4-d]pyrimidin-4-yl]-1-prop-2-enoyl-piperazin-2-yl]acetonitrile] | – | 6.00 to 10.00 | –
C (“C”>50% POC) | C=CC(=O)N1CCN(c2nc(OC[C@H]3CN(C)C4(CC4)CO3)nc3c2CCN(c2cccc4ccccc24)C3)C[C@@H]1CC#N [Example 446, 2-((S)-1-Acryloyl-4-(2-(((R)-4-methyl-7-oxa-4-azaspiro[2.5]octan-6-yl)methoxy)-7-(naphthalen-1-yl)-5,6,7,8-tetrahydropyrido[3,4-d]pyrimidin-4-yl)piperazin-2-yl)acetonitrile] | 6.00 to 10.00 | – | –
A (“A”≤25% POC) | C=CC(=O)N1CCN(c2nc(O[C@H](C)CN(C)C)nc3c2CCN(c2c(C)cccc2O)C3)CC1 [Example 95, (R)-1-(4-(2-((1-(dimethylamino)propan-2-yl)oxy)-7-(2-hydroxy-6-methylphenyl)-5,6,7,8-tetrahydropyrido[3,4-d]pyrimidin-4-yl)piperazin-1-yl)prop-2-en-1-one] | – | – | < 6.00
C (“C”>50% POC) | C=CC(=O)N1CCN(c2nc(OCCCN3CCOCC3)nc3c2CCN(c2cc(O)cc(C)c2C)C3)CC1 [Example 213, 1-(4-(7-(5-hydroxy-2,3-dimethylphenyl)-2-(3-morpholinopropoxy)-5,6,7,8-tetrahydropyrido[3,4-d]pyrimidin-4-yl)piperazin-1-yl)prop-2-en-1-one] | – | – | < 6.00
C (“C”>50% POC) | C=CC(=O)N1CCN(c2nc(OC[C@@H]3CCCN3C)nc3c2CCN(c2c(F)cccc2C(F)(F)F)C3)CC1CC#N (stereo partly drawn) [Example 275, 2-(1-acryloyl-4-(7-(2-fluoro-6-(trifluoromethyl)phenyl)-2-(((S)-1-methylpyrrolidin-2-yl)methoxy)-5,6,7,8-tetrahydropyrido[3,4-d]pyrimidin-4-yl)piperazin-2-yl)acetonitrile] | 6.00 to 10.00 | – | –
C (“C”>50% POC) | C=CC(=O)N1CCN(c2nc(O[C@H]3CCCN(C)C3)nc3c2CCN(c2cc(O)cc4ccccc24)C3)CC1 [Example 66, (S)-1-(4-(7-(3-hydroxynaphthalen-1-yl)-2-((1-methylpiperidin-3-yl)oxy)-5,6,7,8-tetrahydropyrido[3,4-d]pyrimidin-4-yl)piperazin-1-yl)prop-2-en-1-one] | < 6.00 | – | –
C (“C”>50% POC) | C=CC(=O)N1CCN(c2nc(OCCN(CC)CC)nc3c2CCN(c2ccccc2C(F)(F)F)C3)CC1CC#N (centres unmarked) [Example 284, 2-(1-acryloyl-4-(2-(2-(diethylamino)ethoxy)-7-(2-(trifluoromethyl)phenyl)-5,6,7,8-tetrahydropyrido[3,4-d]pyrimidin-4-yl)piperazin-2-yl)acetonitrile] | 6.00 to 10.00 | – | –
C (“C”>50% POC) | C=CC(=O)N1CCN(c2nc(OCCN(C)C)nc3c2CCN(c2cc(O)cc4ccccc24)C3)[C@@H](C)C1 [Example 116, (S)-1-(4-(2-(2-(dimethylamino)ethoxy)-7-(3-hydroxynaphthalen-1-yl)-5,6,7,8-tetrahydropyrido[3,4-d]pyrimidin-4-yl)-3-methylpiperazin-1-yl)prop-2-en-1-one] | 6.00 to 10.00 | – | –
